Test results: ChEMBL document CHEMBL4507327 (2021)

How the values were obtained:
[1] = target: Rho-associated protein kinase 1 (Homo sapiens, UniProt Q13464); test: ROCK1(ROC1LGY1) Takeda global kinase panel
[2] = target: Tyrosine-protein kinase HCK (Homo sapiens, UniProt P08631); test: HCK(HCK1LGF1) Takeda global kinase panel
[3] = target: Serine/threonine-protein kinase 3 (Homo sapiens, UniProt Q13188); test: MST2(STK3LGF1) Takeda global kinase panel
[4] = target: G protein-coupled receptor kinase 4 (Homo sapiens, UniProt P32298); test: GRK4(GRK4LGRI) Takeda global kinase panel
[5] = target: Tyrosine-protein kinase Fer (Homo sapiens, UniProt P16591); test: Fer(FER1LGY1) Takeda global kinase panel
[6] = target: Mitogen-activated protein kinase kinase kinase 5 (Homo sapiens, UniProt Q99683); test: ASK [MAP3K5(M3K5LGA1)] Takeda global kinase panel
[7] = target: Serine/threonine-protein kinase LATS2 (Homo sapiens, UniProt Q9NRM7); test: LATS2(LAT2LGY1) Takeda global kinase panel
[8] = target: Serine/threonine-protein kinase NLK (Homo sapiens, UniProt Q9UBE8); test: NLK(NLK1LGI5) Takeda global kinase panel
[9] = target: Serine/threonine-protein kinase PAK 6 (Homo sapiens, UniProt Q9NQU5); test: PAK6(PAK6CGY1) Takeda global kinase panel
Chain of Serine/threonine-protein kinase PAK 6 (Q9NQU5 whole entry): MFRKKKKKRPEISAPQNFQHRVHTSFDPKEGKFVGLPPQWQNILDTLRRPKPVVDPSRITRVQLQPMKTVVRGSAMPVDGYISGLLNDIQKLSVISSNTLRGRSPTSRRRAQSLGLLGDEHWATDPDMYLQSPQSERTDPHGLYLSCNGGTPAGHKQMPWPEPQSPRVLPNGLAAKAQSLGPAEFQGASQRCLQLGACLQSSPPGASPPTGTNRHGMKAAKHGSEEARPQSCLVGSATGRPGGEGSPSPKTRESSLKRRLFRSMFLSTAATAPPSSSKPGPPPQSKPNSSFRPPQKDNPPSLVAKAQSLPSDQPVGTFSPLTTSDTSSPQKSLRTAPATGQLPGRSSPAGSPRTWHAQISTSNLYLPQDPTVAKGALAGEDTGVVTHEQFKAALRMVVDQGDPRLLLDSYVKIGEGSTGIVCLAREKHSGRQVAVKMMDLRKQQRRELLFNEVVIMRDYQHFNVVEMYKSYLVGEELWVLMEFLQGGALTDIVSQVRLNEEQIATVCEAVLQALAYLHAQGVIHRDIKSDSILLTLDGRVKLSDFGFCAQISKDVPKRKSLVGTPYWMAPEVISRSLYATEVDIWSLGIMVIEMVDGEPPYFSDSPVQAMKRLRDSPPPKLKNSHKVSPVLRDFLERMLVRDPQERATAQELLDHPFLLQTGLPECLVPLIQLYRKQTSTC

[10] = target: Interleukin-1 receptor-associated kinase 4 (Homo sapiens, UniProt Q9NWZ3); test: IRAK4(IRK4LGF1) Takeda global kinase panel
[11] = target: Serine/threonine-protein kinase OSR1 (Homo sapiens, UniProt O95747); test: OSR1(OXS1LGY1) Takeda global kinase panel
[12] = target: Bone morphogenetic protein receptor type-2 (Homo sapiens, UniProt Q13873); test: BMPR2(BMR2LGN1) Takeda global kinase panel
[13] = target: Protein-tyrosine kinase 2-beta (Homo sapiens, UniProt Q14289); test: PYK2(PT2BLHF1) Takeda global kinase panel
[14] = target: Serine/threonine-protein kinase pim-2 (Homo sapiens, UniProt Q9P1W9); test: Pim2(PIM2LHY1) Takeda global kinase panel
[15] = target: Casein kinase I isoform delta (Homo sapiens, UniProt P48730); test: CK1delta(CS1DLGI1) Takeda global kinase panel
[16] = target: Neuropeptide Y receptor type 1 (Homo sapiens) (UniProt P25929); test: Inhibition of Neuropeptide Y Y1 at 10 µM in the Eurofins-Panlabs radioligand binding assay (Eurofins_assay_257010); details: Compound concentration 10.0 uM
[17] = target: Homeodomain-interacting protein kinase 4 (Homo sapiens, UniProt Q8NE63); test: HIPK4(HIP4LHY1) Takeda global kinase panel
[18] = target: Serine/threonine-protein kinase Nek9 (Homo sapiens, UniProt Q8TD19); test: Nek9(NEK9LGF1) Takeda global kinase panel
[19] = target: Dual specificity tyrosine-phosphorylation-regulated kinase 4 (Homo sapiens, UniProt Q9NR20); test: DYRK4(DYR4LHY1) Takeda global kinase panel
Chain of Dual specificity tyrosine-phosphorylation-regulated kinase 4 (Q9NR20 whole entry): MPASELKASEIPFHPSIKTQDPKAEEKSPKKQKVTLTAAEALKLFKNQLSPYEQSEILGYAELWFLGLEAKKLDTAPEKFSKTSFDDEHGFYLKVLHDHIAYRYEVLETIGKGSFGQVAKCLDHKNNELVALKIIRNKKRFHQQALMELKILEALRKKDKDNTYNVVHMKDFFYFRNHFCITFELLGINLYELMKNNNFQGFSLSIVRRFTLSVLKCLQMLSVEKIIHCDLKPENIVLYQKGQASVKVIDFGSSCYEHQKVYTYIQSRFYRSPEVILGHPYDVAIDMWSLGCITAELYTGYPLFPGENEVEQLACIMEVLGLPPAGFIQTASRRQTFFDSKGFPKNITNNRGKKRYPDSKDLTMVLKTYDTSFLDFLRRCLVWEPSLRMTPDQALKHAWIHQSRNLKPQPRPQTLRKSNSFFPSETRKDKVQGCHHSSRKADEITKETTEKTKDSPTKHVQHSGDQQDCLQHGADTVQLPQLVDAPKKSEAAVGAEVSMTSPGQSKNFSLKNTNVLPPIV

[20] = target: Activin receptor type-1-like (Homo sapiens, UniProt P37023); test: ALK1(ACL1LGF1) Takeda global kinase panel
[21] = target: GABA-A receptor; anion channel (Rattus norvegicus) (UniProt O09028+P15431+P18506+P18508+P19969+P20236+P23574+P23576+P28471+P28473+P30191+P62813+P63079+P63138+Q91ZM7+Q9ES14); test: Inhibition of GABAA, Muscimol, Central at 10 µM in the Eurofins-Panlabs radioligand binding assay (Eurofins_assay_226500); format: protein-complex assay; details: Compound concentration 10.0 uM
[22] = target: RAC-beta serine/threonine-protein kinase (Homo sapiens, UniProt P31751); test: Akt2 [PKBbeta(AKT2CGY1)] Takeda global kinase panel
[23] = target: Receptor tyrosine-protein kinase erbB-4 (Homo sapiens, UniProt Q15303); test: HER4(ERB4CGF1) Takeda global kinase panel
[24] = target: Testis-specific serine/threonine-protein kinase 1 (Homo sapiens, UniProt Q9BXA7); test: TSSK1(TS1BLGP1) Takeda global kinase panel
[25] = target: Serine/threonine-protein kinase pim-3 (Homo sapiens, UniProt Q86V86); test: Pim3(PIM3LGP1) Takeda global kinase panel
[26] = target: Macrophage colony-stimulating factor 1 receptor (Homo sapiens, UniProt P07333); test: FmS [CSFR(CSF1LGC1)] Takeda global kinase panel
Ephrin type-A receptor 8 = Ephrin type-A receptor 8 (Homo sapiens, UniProt P29322); test: EphA8(EPA8LGF1) Takeda global kinase panel
[27] = target: Insulin-like growth factor 1 receptor (Homo sapiens, UniProt P08069); test: IGF1R(IGF1LGF1) Takeda global kinase panel
Chain of Insulin-like growth factor 1 receptor (P08069 31-736 limits assumed): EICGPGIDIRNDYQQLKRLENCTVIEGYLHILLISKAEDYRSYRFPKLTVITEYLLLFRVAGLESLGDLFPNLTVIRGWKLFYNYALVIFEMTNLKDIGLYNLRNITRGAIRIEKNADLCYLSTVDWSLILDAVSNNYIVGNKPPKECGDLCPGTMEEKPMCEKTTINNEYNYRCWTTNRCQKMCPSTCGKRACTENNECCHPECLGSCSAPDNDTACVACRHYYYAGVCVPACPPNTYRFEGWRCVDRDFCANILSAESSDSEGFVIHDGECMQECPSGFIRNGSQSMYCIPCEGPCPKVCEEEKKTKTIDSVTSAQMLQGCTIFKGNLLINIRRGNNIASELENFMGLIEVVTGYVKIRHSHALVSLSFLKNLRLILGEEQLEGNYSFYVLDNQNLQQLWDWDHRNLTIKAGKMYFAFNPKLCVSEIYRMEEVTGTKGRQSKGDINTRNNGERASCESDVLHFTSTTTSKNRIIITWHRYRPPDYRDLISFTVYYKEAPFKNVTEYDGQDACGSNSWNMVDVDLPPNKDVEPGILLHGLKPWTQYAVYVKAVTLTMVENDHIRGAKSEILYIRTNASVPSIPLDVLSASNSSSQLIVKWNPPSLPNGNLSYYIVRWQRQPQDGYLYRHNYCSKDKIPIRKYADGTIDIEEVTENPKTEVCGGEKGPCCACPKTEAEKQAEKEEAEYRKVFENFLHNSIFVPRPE
Chain of Insulin-like growth factor 1 receptor (P08069 741-1367 limits assumed): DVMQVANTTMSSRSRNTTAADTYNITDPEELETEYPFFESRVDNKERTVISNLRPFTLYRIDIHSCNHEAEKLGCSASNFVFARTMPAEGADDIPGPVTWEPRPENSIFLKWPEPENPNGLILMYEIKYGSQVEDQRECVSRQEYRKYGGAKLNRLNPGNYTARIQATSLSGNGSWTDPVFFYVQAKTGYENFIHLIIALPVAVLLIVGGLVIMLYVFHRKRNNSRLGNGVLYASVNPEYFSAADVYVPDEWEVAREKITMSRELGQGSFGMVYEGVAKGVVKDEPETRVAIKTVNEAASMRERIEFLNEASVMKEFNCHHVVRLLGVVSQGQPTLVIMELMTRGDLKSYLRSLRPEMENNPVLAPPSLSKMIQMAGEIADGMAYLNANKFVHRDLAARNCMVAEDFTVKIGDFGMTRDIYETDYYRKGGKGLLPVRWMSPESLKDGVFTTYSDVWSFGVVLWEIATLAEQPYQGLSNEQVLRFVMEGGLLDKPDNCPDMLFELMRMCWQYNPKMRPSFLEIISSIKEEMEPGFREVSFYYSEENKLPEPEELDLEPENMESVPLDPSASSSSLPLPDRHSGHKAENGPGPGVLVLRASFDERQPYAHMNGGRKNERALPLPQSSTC

[28] = target: Casein kinase II subunit alpha' (Homo sapiens, UniProt P19784); test: CK2alpha2(C2A2LGK1) Takeda global kinase panel
Chain of Casein kinase II subunit alpha' (P19784 whole entry): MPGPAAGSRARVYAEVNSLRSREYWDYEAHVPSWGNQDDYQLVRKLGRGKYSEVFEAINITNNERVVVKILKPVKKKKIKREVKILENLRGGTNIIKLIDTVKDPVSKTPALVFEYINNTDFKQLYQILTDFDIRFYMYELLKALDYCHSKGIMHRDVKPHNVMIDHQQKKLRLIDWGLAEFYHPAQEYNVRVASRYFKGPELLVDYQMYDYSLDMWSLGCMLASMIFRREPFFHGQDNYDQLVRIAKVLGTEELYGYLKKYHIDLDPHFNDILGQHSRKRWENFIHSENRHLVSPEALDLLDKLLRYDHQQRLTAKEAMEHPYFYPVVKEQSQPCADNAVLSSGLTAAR

[29] = target: Eukaryotic translation initiation factor 2-alpha kinase 1 (Homo sapiens, UniProt Q9BQI3); test: HRI(EIK1CGQ1) Takeda global kinase panel
[30] = target: D(1A) dopamine receptor (Homo sapiens) (UniProt P21728); details: Compound concentration 10.0 uM
[31] = target: B2 bradykinin receptor (Homo sapiens) (UniProt P30411); details: Compound concentration 10.0 uM
[32] = target: Fibroblast growth factor receptor 3 (Homo sapiens, UniProt P22607); test: FGFR3(FGF3LGF1) Takeda global kinase panel
Chain of Fibroblast growth factor receptor 3 (P22607 whole entry): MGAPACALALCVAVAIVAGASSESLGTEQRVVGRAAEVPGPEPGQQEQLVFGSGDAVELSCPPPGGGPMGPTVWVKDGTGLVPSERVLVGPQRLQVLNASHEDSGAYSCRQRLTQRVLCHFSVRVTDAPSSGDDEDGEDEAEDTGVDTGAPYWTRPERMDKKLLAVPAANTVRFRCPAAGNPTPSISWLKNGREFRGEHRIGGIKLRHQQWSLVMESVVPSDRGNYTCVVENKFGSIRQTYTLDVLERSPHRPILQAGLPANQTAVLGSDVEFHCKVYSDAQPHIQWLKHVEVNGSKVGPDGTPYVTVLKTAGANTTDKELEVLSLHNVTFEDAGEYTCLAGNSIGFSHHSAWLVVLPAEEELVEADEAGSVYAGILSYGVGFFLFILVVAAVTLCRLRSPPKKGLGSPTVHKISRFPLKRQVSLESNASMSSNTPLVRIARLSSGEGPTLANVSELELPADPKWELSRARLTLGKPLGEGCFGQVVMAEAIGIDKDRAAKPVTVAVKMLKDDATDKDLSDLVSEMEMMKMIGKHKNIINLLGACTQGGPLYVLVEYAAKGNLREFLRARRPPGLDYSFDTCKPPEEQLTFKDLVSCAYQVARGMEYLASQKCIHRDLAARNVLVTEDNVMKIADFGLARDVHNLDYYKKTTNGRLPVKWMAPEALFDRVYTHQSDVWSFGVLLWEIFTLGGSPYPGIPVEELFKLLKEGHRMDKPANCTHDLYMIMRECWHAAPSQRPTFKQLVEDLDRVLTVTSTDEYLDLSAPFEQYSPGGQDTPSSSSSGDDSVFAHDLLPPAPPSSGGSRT

[33] = target: Protein kinase C alpha type (Homo sapiens, UniProt P17252); test: PKCalpha(PRKALGY1) Takeda global kinase panel
[34] = target: Voltage-dependent N-type calcium channel subunit alpha-1B (Homo sapiens) (UniProt Q00975); test: Inhibition of Calcium Channel N-Type at 10 µM in the Eurofins-Panlabs radioligand binding assay (Eurofins_assay_216000); details: Rattus norvegicus; Compound concentration 10.0 uM
[35] = target: 3-phosphoinositide-dependent protein kinase 1 (Homo sapiens, UniProt O15530); test: PDK1(PDP1LGA1) Takeda global kinase panel
[36] = target: Dual specificity tyrosine-phosphorylation-regulated kinase 2 (Homo sapiens, UniProt Q92630); test: DYRK2(DYR2LGY1) Takeda global kinase panel
[37] = target: Tyrosine-protein kinase JAK3 (Homo sapiens, UniProt P52333); test: JAK3(JAK3LGRG) Takeda global kinase panel
[38] = target: Mitogen-activated protein kinase kinase kinase 9 (Homo sapiens, UniProt P80192); test: MLK1(M3K9LGF1) Takeda global kinase panel
[39] = target: STE20-related kinase adapter protein alpha (Homo sapiens, UniProt Q7RTN6); test: STLK5(STRAPHD1) Takeda global kinase panel
[40] = target: Beta-adrenergic receptor kinase 1 (Homo sapiens, UniProt P25098); test: BARK1 [GRK2(ADR1LGG5)] Takeda global kinase panel
[41] = target: Phosphatidylinositol 4,5-bisphosphate 3-kinase catalytic subunit delta isoform (Homo sapiens, UniProt O00329); test: PI3KCD(PI3DCGRK) Takeda global kinase panel
[42] = target: Serine/threonine-protein kinase Nek2 (Homo sapiens, UniProt P51955); test: Nek2(NEK2LHFA) Takeda global kinase panel

Chain of Rho-associated protein kinase 1 (Q13464 whole entry): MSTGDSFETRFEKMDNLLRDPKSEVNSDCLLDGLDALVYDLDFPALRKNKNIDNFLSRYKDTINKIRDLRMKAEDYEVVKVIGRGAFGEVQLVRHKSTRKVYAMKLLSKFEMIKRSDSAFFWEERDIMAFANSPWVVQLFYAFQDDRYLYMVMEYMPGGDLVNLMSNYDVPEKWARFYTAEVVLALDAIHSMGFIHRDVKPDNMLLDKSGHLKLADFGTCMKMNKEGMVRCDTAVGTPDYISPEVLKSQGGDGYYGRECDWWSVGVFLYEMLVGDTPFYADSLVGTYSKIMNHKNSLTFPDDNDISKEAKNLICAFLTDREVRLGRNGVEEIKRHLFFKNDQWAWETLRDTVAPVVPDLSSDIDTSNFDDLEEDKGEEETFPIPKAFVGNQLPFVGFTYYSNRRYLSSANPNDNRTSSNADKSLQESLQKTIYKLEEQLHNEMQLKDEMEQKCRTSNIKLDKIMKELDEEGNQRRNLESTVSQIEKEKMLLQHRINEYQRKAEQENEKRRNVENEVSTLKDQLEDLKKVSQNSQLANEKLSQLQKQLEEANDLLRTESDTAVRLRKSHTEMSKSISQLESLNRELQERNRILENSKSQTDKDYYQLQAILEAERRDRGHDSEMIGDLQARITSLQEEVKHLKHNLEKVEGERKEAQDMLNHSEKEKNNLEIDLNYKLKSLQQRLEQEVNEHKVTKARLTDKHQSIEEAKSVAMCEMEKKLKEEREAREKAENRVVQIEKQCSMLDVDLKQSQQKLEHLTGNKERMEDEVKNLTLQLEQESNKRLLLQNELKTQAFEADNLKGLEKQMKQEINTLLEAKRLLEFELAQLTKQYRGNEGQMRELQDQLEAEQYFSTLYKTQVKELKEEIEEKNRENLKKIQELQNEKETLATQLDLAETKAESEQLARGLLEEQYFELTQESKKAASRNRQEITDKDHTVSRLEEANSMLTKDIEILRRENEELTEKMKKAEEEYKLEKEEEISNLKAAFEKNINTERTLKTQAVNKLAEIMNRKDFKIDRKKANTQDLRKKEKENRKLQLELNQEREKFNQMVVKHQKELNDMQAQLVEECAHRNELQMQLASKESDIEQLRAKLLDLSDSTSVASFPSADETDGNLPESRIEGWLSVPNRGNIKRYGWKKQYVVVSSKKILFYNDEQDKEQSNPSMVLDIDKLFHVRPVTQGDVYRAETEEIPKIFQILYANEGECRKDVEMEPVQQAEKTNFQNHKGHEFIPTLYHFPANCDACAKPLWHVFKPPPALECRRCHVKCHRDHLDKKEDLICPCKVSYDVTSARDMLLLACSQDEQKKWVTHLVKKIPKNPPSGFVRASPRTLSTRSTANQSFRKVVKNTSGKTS

CN1C(=O)[C@@H](N2CCc3cn(Cc4ccccc4)nc3C2=O)COc2ccccc21 [TP-030-1]
IC50 [1]: 1000 nM | IC50 [2]: 1000 nM | IC50 [3]: 1000 nM | IC50 [4]: 1000 nM | IC50 [5]: 1000 nM | IC50 [6]: 1000 nM | IC50 [7]: 1000 nM | IC50 [8]: 1000 nM | IC50 [9]: 1000 nM | IC50 [10]: 1000 nM | IC50 [11]: 1000 nM | IC50 [12]: 1000 nM | IC50 [13]: 1000 nM | IC50 [14]: 1000 nM | IC50 [15]: 1000 nM | inhibition [16]: 4% | IC50 [17]: 1000 nM | IC50 [18]: 1000 nM | IC50 [19]: 1000 nM | IC50 [20]: 1000 nM | inhibition [21]: -1% | IC50 [22]: 1000 nM | IC50 [23]: 1000 nM | IC50 [24]: 1000 nM | IC50 [25]: 1000 nM | IC50 [26]: 1000 nM | IC50 (Ephrin type-A receptor 8): 1000 nM | IC50 [27]: 1000 nM | IC50 [28]: 1000 nM | IC50 [29]: 1000 nM | inhibition [30]: -4% | inhibition [31]: 4% | IC50 [32]: 1000 nM | IC50 [33]: 1000 nM | inhibition [34]: -2% | IC50 [35]: 1000 nM | IC50 [36]: 1000 nM | IC50 [37]: 1000 nM | IC50 [38]: 1000 nM | IC50 [39]: 1000 nM | IC50 [40]: 1000 nM | IC50 [41]: 1000 nM | IC50 [42]: 1000 nM

CN1C(=O)[C@@H](N2CCc3cn(CC4CCS(=O)(=O)CC4)nc3C2=O)COc2ccccc21 [TP-030n]
IC50 [1]: 1000 nM | IC50 [2]: 1000 nM | IC50 [3]: 1000 nM | IC50 [4]: 1000 nM | IC50 [5]: 1000 nM | IC50 [6]: 1000 nM | IC50 [7]: 1000 nM | IC50 [8]: 1000 nM | IC50 [9]: 1000 nM | IC50 [10]: 1000 nM | IC50 [11]: 1000 nM | IC50 [12]: 1000 nM | IC50 [13]: 1000 nM | IC50 [14]: 1000 nM | IC50 [15]: 1000 nM | inhibition [16]: -3% | IC50 [17]: 1000 nM | IC50 [18]: 1000 nM | IC50 [19]: 1000 nM | IC50 [20]: 1000 nM | inhibition [21]: -7% | IC50 [22]: 1000 nM | IC50 [23]: 1000 nM | IC50 [24]: 1000 nM | IC50 [25]: 1000 nM | IC50 [26]: 1000 nM | IC50 (Ephrin type-A receptor 8): 1000 nM | IC50 [27]: 1000 nM | IC50 [28]: 1000 nM | IC50 [29]: 1000 nM | inhibition [30]: 7% | inhibition [31]: -4% | IC50 [32]: 1000 nM | IC50 [33]: 1000 nM | inhibition [34]: 2% | IC50 [35]: 1000 nM | IC50 [36]: 1000 nM | IC50 [37]: 1000 nM | IC50 [38]: 1000 nM | IC50 [39]: 1000 nM | IC50 [40]: 1000 nM | IC50 [41]: 1000 nM | IC50 [42]: 1000 nM
